Assay results published in the supplement of paper PMC10307832.

Columns and labels:
Test in all cases: relative viability (nuclei count vs DMSO), 5 days (fraction); higher = more cells survive
Etoposide + AZD7762 = compound: COc1cc([C@@H]2c3cc4c(cc3[C@@H](O[C@@H]3O[C@@H]5CO[C@@H](C)O[C@H]5[C@H](O)[C@H]3O)[C@H]3COC(=O)[C@H]23)OCO4)cc(OC)c1O [Etoposide] + NC(=O)Nc1cc(-c2cccc(F)c2)sc1C(=O)N[C@H]1CCCNC1 [AZD7762] (partner 0.2 µM)
Outline: (§1)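 Nuclei were stained with Hoechst during a one-step fixation (final 0.05% Triton X-100, 1% formaldehyde, 1 ug/ml Hoechst) carried out 5 days after dosing, then counted on 4× images. The cells, lung cancer lines in 1536-well plates, had been dosed by pin tool the day after seeding with one drug alone or a fixed anchor-drug dose plus five library-drug doses (not always all listed) in √10 steps. Relative viability is the nuclei count in treated wells divided by that in vehicle wells, and each value is the median of duplicate plates.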

Bleomycin + Luminespib = compound: CC1=C(N=C(N=C1N)[C@H](CC(=O)N)NC[C@@H](C(=O)N)N)C(=O)N[C@@H]([C@H](C2=CN=CN2)OC3C(C(C(C(O3)CO)O)O)OC4C(C(C(C(O4)CO)O)OC(=O)N)O)C(=O)N[C@H](C)[C@H]([C@H](C)C(=O)N[C@@H]([C@@H](C)O)C(=O)NCCC5=NC(=CS5)C6=NC(=CS6)C(=O)NCCC[S+](C)C)O [Bleomycin] + CCNC(=O)c1noc(-c2cc(C(C)C)c(O)cc2O)c1-c1ccc(CN2CCOCC2)cc1 [Luminespib] (partner 0.01 µM); conditions: main component drawn
Outline: as §1

Bleomycin + Pictilisib = compound: CC1=C(N=C(N=C1N)[C@H](CC(=O)N)NC[C@@H](C(=O)N)N)C(=O)N[C@@H]([C@H](C2=CN=CN2)OC3C(C(C(C(O3)CO)O)O)OC4C(C(C(C(O4)CO)O)OC(=O)N)O)C(=O)N[C@H](C)[C@H]([C@H](C)C(=O)N[C@@H]([C@@H](C)O)C(=O)NCCC5=NC(=CS5)C6=NC(=CS6)C(=O)NCCC[S+](C)C)O [Bleomycin] + CS(=O)(=O)N1CCN(Cc2cc3nc(-c4cccc5[nH]ncc45)nc(N4CCOCC4)c3s2)CC1 [Pictilisib] (partner 1 µM); conditions: main component drawn
Outline: as §1

Etoposide + OSI-027 = compound: COc1cc([C@@H]2c3cc4c(cc3[C@@H](O[C@@H]3O[C@@H]5CO[C@@H](C)O[C@H]5[C@H](O)[C@H]3O)[C@H]3COC(=O)[C@H]23)OCO4)cc(OC)c1O [Etoposide] + COc1cccc2cc(-c3nc([C@H]4CC[C@H](C(=O)O)CC4)n4ncnc(N)c34)[nH]c12 [OSI-027] (partner 0.5 µM)
Outline: as §1

Cell Line	relative viability (Etoposide + AZD7762; first compound 0.03162 µM)	relative viability (Etoposide + AZD7762; first compound 0.1 µM)	relative viability (Etoposide + AZD7762; first compound 0.3162 µM)	relative viability (Etoposide + AZD7762; first compound 1 µM)	relative viability (Bleomycin + Luminespib; first compound 0.01 µM)	relative viability (Bleomycin + Luminespib; first compound 0.03162 µM)	relative viability (Bleomycin + Luminespib; first compound 0.1 µM)	relative viability (Bleomycin + Luminespib; first compound 0.3162 µM)	relative viability (Bleomycin + Luminespib; first compound 1 µM)	relative viability (Bleomycin + Pictilisib; first compound 0.01 µM)	relative viability (Bleomycin + Pictilisib; first compound 0.03162 µM)	relative viability (Bleomycin + Pictilisib; first compound 0.1 µM)	relative viability (Bleomycin + Pictilisib; first compound 0.3162 µM)	relative viability (Bleomycin + Pictilisib; first compound 1 µM)	relative viability (Etoposide + OSI-027; first compound 0.01 µM)	relative viability (Etoposide + OSI-027; first compound 0.03162 µM)	relative viability (Etoposide + OSI-027; first compound 0.3162 µM)	relative viability (Etoposide + OSI-027; first compound 1 µM)	relative viability (Etoposide + AZD7762; first compound 0.01 µM)	relative viability (Etoposide + OSI-027; first compound 0.1 µM)
NCI-H1793	0.548	0.282	0.474	0.196	0.169	0.157	0.286	0.175	0.153	0.398	0.314	0.312	0.233	0.169	0.243	0.325	0.246	0.209	–	–
NCI-H1915	0.777	0.697	0.648	0.527	0.533	0.568	0.398	0.235	0.145	0.575	0.65	0.535	0.247	0.146	0.598	0.637	0.572	0.504	0.66	0.492
NCI-H1944	0.639	0.276	0.377	0.235	0.363	0.318	0.269	0.176	0.148	0.284	0.282	0.271	0.204	0.184	0.417	0.52	0.294	0.205	0.577	0.344
NCI-H1975	0.804	0.508	0.658	0.443	0.29	0.168	0.177	0.164	0.178	0.288	0.256	0.258	0.188	0.134	0.733	0.975	0.748	0.27	0.702	0.594
NCI-H1993	0.838	0.474	0.759	0.596	0.738	0.497	0.716	0.57	0.41	0.647	0.807	0.794	0.681	0.688	0.565	0.452	0.508	0.522	–	0.53
NCI-H2085	0.905	0.803	0.911	0.453	0.408	0.436	0.369	0.314	0.279	0.427	0.386	0.364	0.29	0.293	0.542	0.705	0.676	0.373	0.831	0.533
NCI-H2087	1.3	1.3	1.08	0.78	–	0.162	0.188	0.124	0.142	0.766	0.874	0.775	0.236	0.247	0.514	0.59	0.386	0.173	1.46	0.364
NCI-H2126	1.08	0.681	0.948	0.919	0.954	0.934	0.872	0.566	0.551	0.498	0.471	0.501	0.391	0.365	0.742	0.662	0.706	0.506	0.93	–
NCI-H2170	0.882	–	0.881	0.482	0.604	0.494	0.593	0.355	0.515	0.376	0.304	0.297	0.256	0.262	0.697	0.76	0.736	0.536	0.721	0.44
NCI-H2347	0.828	0.311	0.374	0.367	0.275	0.381	0.431	0.235	0.385	0.605	0.599	0.532	0.271	0.575	0.365	0.338	0.358	0.32	0.685	0.325
NCI-H2405	0.765	0.728	0.638	0.317	0.651	0.697	0.589	0.347	0.358	0.45	0.417	0.42	0.254	0.202	0.637	0.671	0.612	0.462	0.754	0.49
NCI-H3122	0.998	0.834	0.607	0.181	0.103	0.145	0.101	0.111	0.0599	0.642	0.591	0.577	0.243	0.36	0.799	0.985	0.722	0.349	0.998	0.404
PC-3 [JPC-3]	0.92	0.604	0.785	0.73	0.685	0.665	0.621	0.55	0.418	0.681	0.681	0.768	0.569	0.466	0.657	0.731	0.736	0.689	0.782	0.636
PC-14	0.396	0.317	0.307	0.17	0.148	0.144	0.121	0.116	0.124	0.369	0.259	0.159	0.0359	0.0457	0.815	0.945	0.587	0.275	0.338	0.58
RERF-LC-KJ	1.1	0.583	0.861	0.967	0.555	0.479	0.461	0.307	0.287	0.269	0.433	0.316	0.188	0.167	0.529	0.615	0.613	0.429	0.935	0.382
